Columns and labels:
[1] = biological target: Glutamate NMDA receptor; assay: Displacement of [3H]DCKA from glycine NMDA receptor of rat cortical membranes; assay type: cell membranes, Membrane
[2] = biological target: Glutamate receptor ionotropic, AMPA (Rattus norvegicus, UniProt P19490+P19491+P19492+P19493); assay: Displacement of [3H]AMPA from Ionotropic glutamate receptor AMPA of rat cortical membranes; assay type: cell membranes, Membrane
[3] = system: Mus musculus; assay: In vivo effective dose required to protect 6 male CD1 mice against tonic convulsions following ip administration for a pretreatment time of 30 min; assay type: functional
[4] = system: Mus musculus; assay: In vivo effective dose required to protect 6 male CD1 mice against tonic convulsions following iv administration for a pretreatment time of 5 min; assay type: functional
[5] = system: Mus musculus; assay: In vivo effective dose required to protect 6 male CD1 mice against tonic convulsions following iv administration for a pretreatment time of 60 min; assay type: functional
[6] = species on record: Xenopus sp.; assay: Inhibition of currents generated by 50 uM kainate in Xenopus oocytes injected with rat brain mRNA; assay type: functional, organism-based, frog
[7] = system: Mus musculus; assay: In vivo effective dose required to protect 6 male CD1 mice against tonic convulsions following iv administration for a pretreatment time of 30 min; assay type: functional

## CC1(CCCCC(=O)O)c2ccccc2-c2nc(O)c3nc(C(=O)O)cn3c21 (configuration not stated)
[1]
  IC50: 134 nM
[2]
  IC50: 242 nM
[3]
  ED50: 10 mg/kg
[4]
  ED50: 9.5 mg/kg
[5]
  ED50: 15 mg/kg
[6]
  IC50: 22 nM

## O=C(O)c1cn2c3c(nc(O)c2n1)-c1ccccc1C3=O
[1]
  IC50: 422 nM
[2]
  IC50: 580 nM
[6]
  IC50: 320 nM

## O=C(O)c1cn2c3c(nc(O)c2n1)-c1ccccc1C3N1CC=CC1=O (configuration not stated)
[1]
  IC50: 184 nM
[2]
  IC50: 23 nM
[3]
  ED50: 20 mg/kg
[4]
  ED50: 7.7 mg/kg

## O=C(Nc1ccccc1)NC1c2ccccc2-c2nc(O)c3nc(C(=O)O)cn3c21 (configuration not stated)
[1]
  IC50: 18 nM
[2]
  IC50: 159 nM
[3]
  ED50: 80 mg/kg
[6]
  IC50: 30 nM

## O=C(O)c1cn2c3c(nc(O)c2n1)-c1ccccc1C3
[6]
  IC50: 29 nM

## O=C(O)c1cn2c3c(nc(O)c2n1)-c1ccccc1C3n1cccc1 (configuration not stated)
[1]
  IC50: 32 nM
[2]
  IC50: 55 nM
[3]
  ED50: 26 mg/kg
[7]
  ED50: 15 mg/kg
[4]
  ED50: 10 mg/kg
[5]
  ED50: 17 mg/kg
[6]
  IC50: 60 nM

## NC1c2ccccc2-c2nc(O)c3nc(C(=O)O)cn3c21 (configuration not stated)
[1]
  IC50: 158 nM
[2]
  IC50: 93 nM
[3]
  ED50: 19 mg/kg
[7]
  ED50: 25 mg/kg
[4]
  ED50: 7 mg/kg
[5]
  ED50: > 40 mg/kg
[6]
  IC50: 130 nM

## Oc1nc2c(n3ccnc13)Cc1ccccc1-2
[6]
  IC50: 1800 nM

## O=Nc1c2n3cc(C(=O)O)[nH]c3c(O)nc-2c2ccccc12
[1]
  IC50: 593 nM
[2]
  IC50: 167 nM
[3]
  ED50: > 80 mg/kg
[6]
  IC50: 130 nM

## O=C(O)CCC(=O)NC1c2ccccc2-c2nc(O)c3nc(C(=O)O)cn3c21 (configuration not stated)
[1]
  IC50: 230 nM
[2]
  IC50: 35 nM
[3]
  ED50: 2.5 mg/kg
[7]
  ED50: 1.7 mg/kg
[4]
  ED50: 1.7 mg/kg
[5]
  ED50: 3 mg/kg
[6]
  IC50: 6 nM

## O=C(O)CCCO/N=C1\c2ccccc2-c2nc(O)c3nc(C(=O)O)cn3c21
[1]
  IC50: 1400 nM
[2]
  IC50: 44 nM
[3]
  ED50: > 80 mg/kg
[6]
  IC50: 5 nM

## O=c1[nH]c2cc(C(F)(F)F)c(N3CCOCC3)cc2n(CP(=O)(O)O)c1=O [FANAPANEL]
[1]
  IC50: > 10000 nM
[3]
  ED50: 36 mg/kg
[4]
  ED50: 36 mg/kg
[6]
  IC50: 31 nM

## O=C(O)[C@@H]1C[C@H]2C[C@@H](CCc3nn[nH]n3)CC[C@H]2CN1 [TEZAMPANEL ANHYDROUS]
[6]
  IC50: 233 nM

## O=c1[nH]c2cc(-n3ccnc3)c([N+](=O)[O-])cc2[nH]c1=O [YM-90K]
[7]
  ED50: 24 mg/kg
[4]
  ED50: 6.2 mg/kg
[5]
  ED50: 40 mg/kg
[6]
  IC50: 260 nM

From ChEMBL document CHEMBL1134261, “Synthesis of anticonvulsive AMPA antagonists: 4-oxo-10-substituted-imidaz” (Bioorg Med Chem Lett, 2001)
